Data set [1] is described as follows: Peptide stability test 1: aqueous solution, phosphate buffer pH 7.0, stored at 40° C., HPLC conditions 1. It counts as physicochemical. As to conditions: 100 μM peptide, phosphate buffer pH 7.0, 40° C. How it is done:
Peptides 1 and 3 to 5 synthesized in Example 2 were weighed and dissolved in phosphate buffer (pH 7.0) to prepare 1.0 mM peptide solutions. The 1.0 mM peptide solutions were then diluted with phosphate buffer to 100 μM. After filtering with. Chromatdisk (product of Merck Millipore, Millex-GV, 0.22 μm), each filtrate was dispensed into an LC vial (Waters Deactivated Qsert Vial). The prepared peptide solutions were incubated for one month or 2 months in a 40° C. thermostatic bath to obtain stored samples. A simultaneously prepared sample among the peptide solutions that was not stored was used as a standard sample (initial sample). The standard sample and the stored samples were stored at −30° C. until sample analysis.
Using the total weight of the aqueous peptide solution and storage vessel as the specimen weight, measurements were recorded as the specimen weights before storage and the specimen weights after storage under different storage conditions. The empty weight of the storage vessel was also measured, and the moisture permeability was determined by the following formula.
After stirring the standard sample and the stored samples on a vortex mixer, each peptide solution was transferred to an HPLC vial (Deactivated Qsert vial by Waters Co.). Reverse-phase HPLC (HPLC system: Prominence by Shimadzu Corp.) was conducted under the conditions shown in Table 3 below for analysis of the_peptide solutions, and chromatograms were obtained.
(§1) Column: XSelect CSH C18 by Waters Co., 5 μm, 4.6×250 mm
Guard column: XSelect CSH C18 by Waters. Co., 5 μm, 4.6×20 mm Guard Cartridge
(§2) Detection wavelength: 220 nm
(§3) Mobile phase A: 0.1% formic acid in water
(§4) Mobile phase B: 0.1% formic acid in acetonitrile
Measuring time: 30 minutes
Measuring sample injection rate: 50 μL
(§5) Column temperature: 40° C.
Mobile phase delivery: The mixing ratio of mobile phase A and mobile phase B was varied as shown in Table 3 for linear concentration gradient control.
The peak area value for the peptide in the chromatogram was calculated, and the survival rate (survival rate before correction for water) was calculated using formula (2). The survival rate after correction for water was also calculated from the survival rate before correction for water using formula (3), taking into account the moisture permeability of the container.

Data set [2] in a line: Peptide stability tests 2 and 3: Tris buffer pH 7.0, stored at 60° C., HPLC conditions 2. Format: physicochemical. The conditions noted are these: 100 μM peptide, Tris buffer pH 7.0, 60° C. In a few lines: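 Survival rate, corrected for water, was quantified by reversed-phase C18 HPLC (220 nm; formic acid water/acetonitrile gradient; 40° C. column) against an initial unstored standard. Samples were 100 μM peptide in pH 7.0 Tris stored 1–2 weeks at 60° C.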

Data set [3] in a line: Peptide stability test 4: phosphate buffer pH 7.0, stored at 40° C. It counts as physicochemical. As to conditions: phosphate buffer pH 7.0, 40° C.; for survival rate after correction for water, 40° C., 1-month storage / survival rate after correction for water, 40° C., 2-month storage: 100 μM peptide; for survival rate after correction for water, 40° C., 2-month storage: 2 months. How it is done: Peptides 10 and 11 synthesized in Example 2 were weighed and dissolved in phosphate buffer (pH 7.0) to prepare 1.0 mM peptide solutions. The solutions were filtered with a Chromatdisk (product of Merck Millipore, Millex-GV, 0.22 Each filtrate was diluted to 100 μM with phosphate buffer (pH 7.0) and dispensed into a tube (Protein LoBind Tube by Eppendorf Co.). The prepared peptides were incubated for one month or 2 months in a 40° C. thermostatic bath to obtain stored samples. A simultaneously prepared sample among the peptide solutions that was not stored was used as a standard sample (initial sample). The standard sample and the stored samples were stored at −30° C. until sample analysis.
The survival rate after correction for water for each peptide among the stored samples was measured in the same manner as Example 4, and the results are shown in Table 8.

Data set [4] in a line: Peptide stability test 5: Tris buffer pH 7.0, stored at 60° C., HPLC conditions 3. It counts as physicochemical. As to conditions: 100 μM peptide, Tris buffer pH 7.0, 60° C. The procedure:
Peptide 26 synthesized in Example 2 was weighed and dissolved in Tris buffer (pH 7.0) to prepare 1.0 mM peptide solutions. Each solution was filtered with a Chromatdisk (product of Merck Millipore, Millex-GV, 0.22 μm). The filtrate was diluted to 100 μM with Tris buffer (pH 7.0) and dispensed into a tube (Protein LoBind Tube by Eppendorf Co.). The prepared peptide solutions were incubated for one week or 2 weeks in a 60° C. thermostatic bath to obtain stored samples. A simultaneously prepared sample among the peptide solutions that was not stored was used as a standard sample (initial sample). The standard sample and the stored samples were stored at −30° C. until sample analysis.
The stored sample was measured under the following HPLC analysis conditions 3, and the survival rate alter correction for water for the peptide among the stored samples was calculated in the same manner as Example 3.
as §1
Guard column: XSelect CSH C18 by Waters Co., 5 4.6×20 mm Guard Cartridge
as §2, §3, §4
Measuring time: 20 minutes
Measuring sample injection volume: 50 μL
as §5
Mobile phase delivery: The mixing ratio of mobile phase A and mobile phase B was varied as shown in Table 9 for linear concentration gradient control.

For the next data set, the target named is T1, PAC1 receptor (PAC1R) (Homo sapiens, UniProt P41586).
T1 sequence (P41586 21-468): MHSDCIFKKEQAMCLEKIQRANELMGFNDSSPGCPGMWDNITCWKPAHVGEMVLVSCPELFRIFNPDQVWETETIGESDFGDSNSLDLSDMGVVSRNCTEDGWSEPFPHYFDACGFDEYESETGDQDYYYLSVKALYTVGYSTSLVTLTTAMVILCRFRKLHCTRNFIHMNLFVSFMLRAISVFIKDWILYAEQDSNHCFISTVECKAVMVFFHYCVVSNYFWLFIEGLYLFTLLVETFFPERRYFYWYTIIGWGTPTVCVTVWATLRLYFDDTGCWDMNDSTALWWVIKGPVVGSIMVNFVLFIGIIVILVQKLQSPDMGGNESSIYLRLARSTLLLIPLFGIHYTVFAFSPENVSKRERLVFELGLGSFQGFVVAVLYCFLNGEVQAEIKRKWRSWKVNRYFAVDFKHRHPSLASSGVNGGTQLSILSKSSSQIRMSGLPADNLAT
The conditions noted are these: background statement; cited from earlier work.

The text below walks through data of patent US12304932B2, “PACAP stabilized peptide” (SENJU PHARMACEUTICAL CO., LTD., priority 2017, dated 2025).

Square brackets hold non-standard residues; d marks the D form. Peptide text beside a SMILES is read from it. * marks the point of attachment. Ala(1H-tetrazol-5-yl) = N[C@@H](Cc1nnn[nH]1)C(=O)O; Nle = CCCC[C@H](N)C(=O)O; Ms = CS(=O)(=O)*

For the molecule `CC[C@H](C)[C@H](NC(=O)CNC(=O)[C@H](CC(=O)O)NC(=O)[C@H](CO)NC(=O)[C@@H](N)Cc1c[nH]cn1)C(=O)N[C@@H](Cc1ccccc1)C(=O)N[C@H](C(=O)N[C@@H](CC(=O)O)C(=O)N[C@@H](CO)C(=O)N[C@@H](Cc1ccc(O)cc1)C(=O)N[C@@H](CO)C(=O)N[C@@H](CCCNC(=N)N)C(=O)N[C@@H](Cc1ccc(O)cc1)C(=O)N[C@@H](CCCNC(=N)N)C(=O)N[C@@H](CCCCN)C(=O)N[C@@H](CCC(N)=O)C(=O)N[C@@H](CCSC)C(=O)N[C@@H](C)C(=O)N[C@H](C(=O)N[C@@H](CCCCN)C(=O)N[C@@H](CCCCN)C(=O)N[C@@H](Cc1ccc(O)cc1)C(=O)N[C@@H](CC(C)C)C(=O)N[C@@H](C)C(=O)N[C@@H](C)C(=O)N[C@H](C(=O)N[C@@H](CC(C)C)C(N)=O)C(C)C)C(C)C)[C@@H](C)O` [Peptide 1, reference compound], the “survival rate after correction for water, 40° C., 1-month storage” value (“survival rate … 1-month storage” below) in data set [1] (1 month) came out at 37.4%. Also, the “survival rate after correction for water, 40° C., 2-month storage” value (shortened to “survival rate … 2-month storage”) in data set [1] (2 months) turned out to be 21.3%. Besides, the “survival rate after correction for water, 60° C., 1-week storage” value in data set [2] (1 week) is on record as 26.6%. Also, in data set [2] (2 weeks), the “survival rate after correction for water, 60° C., 2-week storage” value worked out at 15.8%.

Turning to `CC[C@H](C)[C@H](NC(=O)CNC(=O)[C@H](Cc1nnn[nH]1)NC(=O)[C@H](CO)NC(=O)[C@H](Cc1c[nH]cn1)NC(C)=O)C(=O)N[C@@H](Cc1ccccc1)C(=O)N[C@H](C(=O)N[C@@H](Cc1nnn[nH]1)C(=O)N[C@@H](CO)C(=O)N[C@@H](Cc1ccc(O)cc1)C(=O)N[C@@H](CO)C(=O)N[C@@H](CCCNC(=N)N)C(=O)N[C@@H](Cc1ccc(O)cc1)C(=O)N[C@@H](CCCNC(=N)N)C(=O)N[C@@H](CCCCN)C(=O)N[C@@H](CCC(N)=O)C(=O)N[C@@H](CCSC)C(=O)N[C@@H](C)C(=O)N[C@H](C(=O)N[C@@H](CCCCN)C(=O)N[C@@H](CCCCN)C(=O)N[C@@H](Cc1ccc(O)cc1)C(=O)N[C@@H](CC(C)C)C(=O)N[C@@H](C)C(=O)N[C@@H](C)C(=O)N[C@H](C(=O)N[C@@H](CC(C)C)C(N)=O)C(C)C)C(C)C)[C@@H](C)O` [Peptide 10] (Ac-HS[Ala(1H-tetrazol-5-yl)]GIFT[Ala(1H-tetrazol-5-yl)]SYSRYRKQMAVKKYLAAVL-NH2), in data set [3], the “survival rate … 1-month storage” value is 94.0%; the “survival rate … 2-month storage” value amounted to 87.8%; the “stability in aqueous solution, in words” value is “stabilized to the same degree”.

On to `CCCC[C@H](NC(=O)[C@H](CCC(N)=O)NC(=O)[C@H](CCCCN)NC(=O)[C@H](CCCNC(=N)N)NC(=O)[C@H](Cc1ccc(O)cc1)NC(=O)[C@H](CCCNC(=N)N)NC(=O)[C@H](CO)NC(=O)[C@H](Cc1ccc(O)cc1)NC(=O)[C@H](CO)NC(=O)[C@H](Cc1nnn[nH]1)NC(=O)[C@@H](NC(=O)[C@H](Cc1ccccc1)NC(=O)[C@@H](NC(=O)CNC(=O)[C@H](Cc1nnn[nH]1)NC(=O)[C@H](CO)NC(=O)[C@H](Cc1c[nH]cn1)NS(C)(=O)=O)[C@@H](C)CC)[C@@H](C)O)C(=O)N[C@@H](C)C(=O)N[C@H](C(=O)N[C@@H](CCCCN)C(=O)N[C@@H](CCCCN)C(=O)N[C@@H](Cc1ccc(O)cc1)C(=O)N[C@@H](CC(C)C)C(=O)N[C@@H](C)C(=O)N[C@@H](C)C(=O)N[C@H](C(=O)N[C@@H](CC(C)C)C(N)=O)C(C)C)C(C)C` [Peptide 11] (Ms-HS[Ala(1H-tetrazol-5-yl)]GIFT[Ala(1H-tetrazol-5-yl)]SYSRYRKQ[Nle]AVKKYLAAVL-NH2), for which, in data set [3], the “survival rate … 1-month storage” value amounted to 94.2%; the “survival rate … 2-month storage” value was 88.8%; the “stability in aqueous solution, in words” value was “stabilized to the same degree”.

`CC[C@H](C)[C@H](NC(=O)CNC(=O)[C@H](Cc1nnn[nH]1)NC(=O)[C@H](CO)NC(=O)[C@H](Cc1c[nH]cn1)NC(C)=O)C(=O)N[C@@H](Cc1ccccc1)C(=O)N[C@H](C(=O)N[C@@H](Cc1nnn[nH]1)C(=O)N[C@@H](C)C(=O)N[C@@H](Cc1ccc(O)cc1)C(=O)N[C@@H](CO)C(=O)N[C@@H](CCCNC(=N)N)C(=O)N[C@@H](Cc1ccc(O)cc1)C(=O)N[C@@H](CCCNC(=N)N)C(=O)N[C@@H](CCCCN)C(=O)N[C@@H](C)C(=O)N[C@@H](CC(C)C)C(=O)N[C@@H](C)C(=O)N[C@H](C(=O)N[C@@H](CCCCN)C(=O)N[C@@H](CCCCN)C(=O)N[C@@H](Cc1ccc(O)cc1)C(=O)N[C@@H](CC(C)C)C(=O)N[C@@H](C)C(=O)N[C@@H](C)C(=O)N[C@H](C(=O)N[C@@H](CC(C)C)C(N)=O)C(C)C)C(C)C)[C@@H](C)O` [Peptide 26] (Ac-HS[Ala(1H-tetrazol-5-yl)]GIFT[Ala(1H-tetrazol-5-yl)]AYSRYRKALAVKKYLAAVL-NH2): the “survival rate after correction for water, 60° C., 1-week storage” value in data set [4] (1 week) is 98.0%. The “survival rate after correction for water, 60° C., 2-week storage” value in data set [4] (2 weeks) came to 94.8%.

Take “Pituitary adenylate cyclase-activating polypeptide [PACAP]”: the “affinity of PAC1R for PACAP relative to its affinity for VIP” value on PAC1 receptor (PAC1R) was “more than 1000 times”.
